Assay results: patent US9359293B2, “Methods of treatment using modulators of SIRT2” (priority 2011, dated 2016)
“Also recorded” adds a separate entry of the source.

Columns and labels:
Sirt3 = Sirt3 (Homo sapiens (Human), UniProt Q9NTG7); assay: Sirtuin deacylase inhibition, HPLC assay (H3K9Ac peptide); assay type: biochemical; conditions: 1 μM sirtuin, 1 mM NAD, 30 min pre-incubation
Experimental: (§1) Distinct selectivity profiles were found for each of the inhibitors studied. Different concentrations of TA, TB, TH, or TM were pre-incubated with 1 μM of the sirtuin and 1 mM NAD in 20 mM Tris-HCl buffer (pH 8.0) with 1 mM dithiothreitol (DTT) at 37° C. for 30 minutes. Then 0.05 mM acyl peptides (H3K9Ac for Sirt1, Sirt2 and Sirt3; H3K9Su for Sirt5; H3K9Myr for Sirt6 and Sirt7) were added to initiate the reactions. The total reaction volume iwas […]. Then reactions were incubated at 37° C. for a certain amount of time (2 minutes for Sirt1, 10 minutes for Sirt2 and Sirt5, 30 minutes for Sirt3, and 1 hour for Sirt6 and Sirt7). The reactions were stopped by adding […] of an aqueous solution containing 200 mM HCl and 320 mM acetic acid. After centrifugation to remove precipitated proteins, the supernatant was analyzed by HPLC with a reverse phase C18 column (250×4.6 mm, 90 A, […], GraceVydac, Southborough, Mass.), with a linear gradient of 0% to 20% B for 10 minutes (1 mL/min). […] All reactions were done in duplicate.

Sirt5 = Sirt5 (Homo sapiens (Human), UniProt Q9NXA8); assay: Sirtuin deacylase inhibition, HPLC assay (H3K9Su peptide); assay type: biochemical; conditions: 1 μM sirtuin, 1 mM NAD, 30 min pre-incubation, 10 minutes
Sequence of Sirt5 (Q9NXA8 37-310): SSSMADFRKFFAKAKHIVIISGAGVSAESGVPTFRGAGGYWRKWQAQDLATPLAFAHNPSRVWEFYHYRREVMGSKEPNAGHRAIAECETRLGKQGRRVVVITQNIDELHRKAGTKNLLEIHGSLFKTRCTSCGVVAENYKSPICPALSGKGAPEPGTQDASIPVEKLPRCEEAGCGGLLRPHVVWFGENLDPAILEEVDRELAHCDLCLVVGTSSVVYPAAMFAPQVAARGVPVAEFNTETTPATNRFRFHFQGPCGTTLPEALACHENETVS
Experimental: as §1

Sirt7 = Sirt7 (Homo sapiens (Human), UniProt Q9NRC8); assay: Sirtuin deacylase inhibition, HPLC assay (H3K9Myr peptide); assay type: biochemical; conditions: 1 μM sirtuin, 1 mM NAD, 30 min pre-incubation, 1 hour
Sequence of Sirt7 (Q9NRC8 whole entry): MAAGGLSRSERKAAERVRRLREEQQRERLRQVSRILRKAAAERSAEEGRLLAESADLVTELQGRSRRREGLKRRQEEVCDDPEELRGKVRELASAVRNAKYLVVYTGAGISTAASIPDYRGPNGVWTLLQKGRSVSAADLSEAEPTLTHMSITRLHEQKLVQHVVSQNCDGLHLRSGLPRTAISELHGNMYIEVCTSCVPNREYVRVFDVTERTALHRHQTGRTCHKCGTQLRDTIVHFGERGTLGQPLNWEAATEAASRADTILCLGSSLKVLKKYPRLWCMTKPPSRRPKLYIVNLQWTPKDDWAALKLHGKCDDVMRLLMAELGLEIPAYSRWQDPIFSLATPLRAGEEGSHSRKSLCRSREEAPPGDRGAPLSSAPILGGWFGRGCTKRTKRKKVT
Experimental: as §1

Sirt6 = Sirt6 (Homo sapiens (Human), UniProt Q8N6T7); assay: as above; assay type: biochemical; conditions: 1 μM sirtuin, 1 mM NAD, 30 min pre-incubation, 1 hour
Sequence of Sirt6 (Q8N6T7 whole entry): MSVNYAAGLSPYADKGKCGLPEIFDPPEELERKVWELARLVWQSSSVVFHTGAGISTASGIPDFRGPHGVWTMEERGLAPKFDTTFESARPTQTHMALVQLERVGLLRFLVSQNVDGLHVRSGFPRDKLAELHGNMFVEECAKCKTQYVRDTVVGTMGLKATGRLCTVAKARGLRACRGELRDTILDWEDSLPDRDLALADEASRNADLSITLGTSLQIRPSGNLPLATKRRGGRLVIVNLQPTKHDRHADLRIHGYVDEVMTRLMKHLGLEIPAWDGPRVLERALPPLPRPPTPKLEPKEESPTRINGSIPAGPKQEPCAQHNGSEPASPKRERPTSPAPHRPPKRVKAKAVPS
Experimental: as §1

Sirt2 = Sirt2 (Homo sapiens (Human), UniProt Q8IXJ6); assay: Sirtuin deacylase inhibition, HPLC assay (H3K9Ac peptide); assay type: biochemical; conditions: for IC50: 1 μM sirtuin, 1 mM NAD, 30 min pre-incubation, H3K9Ac, 10 minutes
Sequence of Sirt2 (Q8IXJ6 whole entry): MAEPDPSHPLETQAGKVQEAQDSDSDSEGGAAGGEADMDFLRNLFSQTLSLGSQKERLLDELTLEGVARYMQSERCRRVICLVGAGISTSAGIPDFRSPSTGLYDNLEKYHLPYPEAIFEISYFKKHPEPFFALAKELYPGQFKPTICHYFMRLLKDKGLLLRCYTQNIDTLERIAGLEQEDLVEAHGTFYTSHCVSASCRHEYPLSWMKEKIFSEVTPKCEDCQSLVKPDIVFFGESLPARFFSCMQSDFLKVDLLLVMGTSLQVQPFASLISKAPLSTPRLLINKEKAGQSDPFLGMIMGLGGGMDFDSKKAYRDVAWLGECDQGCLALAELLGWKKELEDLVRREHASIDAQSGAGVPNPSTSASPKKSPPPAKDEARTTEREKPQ
Experimental: as §1, with “Then” for “Distinct selectivity profiles were found for each of the inhibitors studied. Different concentrations of TA, TB, TH, or TM were pre-incubated with 1 μM of the sirtuin and 1 mM NAD in 20 mM Tris-HCl buffer (pH 8.0) with 1 mM dithiothreitol (DTT) at 37° C. for 30 minutes. Then”

Sirt1 = Sirt1 (Homo sapiens (Human), UniProt Q96EB6); assay: as above; assay type: biochemical; conditions: for IC50: 1 μM sirtuin, 1 mM NAD, 30 min pre-incubation, H3K9Ac, 2 minutes; for inhibition of Sirt1 (in words): summary of Table 1
Sequence of Sirt1 (Q96EB6 whole entry): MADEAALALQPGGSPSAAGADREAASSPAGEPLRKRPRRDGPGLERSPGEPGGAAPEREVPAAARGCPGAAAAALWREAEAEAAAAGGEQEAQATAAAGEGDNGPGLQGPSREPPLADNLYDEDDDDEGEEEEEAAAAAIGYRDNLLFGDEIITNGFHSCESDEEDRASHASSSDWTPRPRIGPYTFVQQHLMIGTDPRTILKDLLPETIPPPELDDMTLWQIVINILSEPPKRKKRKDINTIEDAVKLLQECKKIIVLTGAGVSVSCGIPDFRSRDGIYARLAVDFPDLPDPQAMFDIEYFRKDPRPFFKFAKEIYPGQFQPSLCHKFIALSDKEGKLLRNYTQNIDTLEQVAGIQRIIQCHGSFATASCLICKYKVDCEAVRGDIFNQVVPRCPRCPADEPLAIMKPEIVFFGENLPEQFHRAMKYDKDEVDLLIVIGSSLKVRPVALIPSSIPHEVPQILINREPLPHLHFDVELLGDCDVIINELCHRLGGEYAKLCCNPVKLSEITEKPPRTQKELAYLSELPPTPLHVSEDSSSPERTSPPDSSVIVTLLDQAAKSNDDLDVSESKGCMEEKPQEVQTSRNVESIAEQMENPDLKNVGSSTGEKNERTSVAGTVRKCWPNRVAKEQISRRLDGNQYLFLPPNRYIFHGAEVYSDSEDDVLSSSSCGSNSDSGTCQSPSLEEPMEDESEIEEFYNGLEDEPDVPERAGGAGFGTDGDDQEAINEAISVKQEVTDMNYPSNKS
Experimental: as §1, with “Then” for “Distinct selectivity profiles were found for each of the inhibitors studied. Different concentrations of TA, TB, TH, or TM were pre-incubated with 1 μM of the sirtuin and 1 mM NAD in 20 mM Tris-HCl buffer (pH 8.0) with 1 mM dithiothreitol (DTT) at 37° C. for 30 minutes. Then”

MCF10a normal cell line = assay: Low serum survival assay (normal cell proliferation); assay type: cell-based, human; conditions: 25 μM, FIG. 3(B), compared with MCF7
[1] = system: triple negative breast cancer cell line MDA-MB-231; assay: Soft agar assay (anchorage-independent growth); assay type: cell-based; conditions: 25 μM, FIGS. 4(A), 4(B)
Experimental: Next, the ability of these inhibiting compounds to inhibit cancer cell proliferation was tested. MCF-7 and MDA-MB-231 cells (ATCC) were both maintained in RPMI 1640 media (Invitrogen®) supplemented with 10% heat-inactivated fetal bovine serum (FBS). MCF-10A (ATCC) cells were maintained in Dulbecco's Modified Eagle Medium: Nutrient Mixture F-12 (DMEM/F12) (Invitrogen®) supplemented with 10% horse serum (Invitrogen®).
The 0.6% agarose type VII (Sigma), 10% FBS and 1% Penicillin-Streptomycin (Invitrogen®) were prepared in RPMI 1640 medium, and added to a six-well culture plate (2 mL/well). The plates were kept at […] for 20 minutes to allow the agarose to solidify. Plates were then incubated at 37° C. for 5 minutes before the addition of the 1 mL soft agar/cell solution prepared by mixing 0.3% agarose type VII, 10% FBS, 1% Penicillin-Streptomycin and ˜3000 cells in RPMI 1640 medium. Again, the plates were kept at 4° C. for 20 minutes to allow the agarose to solidify. After the plates were incubated at 37° C. for 7 days, 1 mL of RPMI 1640 medium with 0.3% agarose type VII, 10% FBS and 1% Penicillin-Streptomycin was added to the plates and the plates kept at 4° C. for 20 minutes to allow the agarose to solidify. After the plates were incubated at 37° C. for another 7 days, the colony formations were examined under a microscope. All the experiments were duplicated. […]

Sequence of Sirt3 (Q9NTG7 whole entry): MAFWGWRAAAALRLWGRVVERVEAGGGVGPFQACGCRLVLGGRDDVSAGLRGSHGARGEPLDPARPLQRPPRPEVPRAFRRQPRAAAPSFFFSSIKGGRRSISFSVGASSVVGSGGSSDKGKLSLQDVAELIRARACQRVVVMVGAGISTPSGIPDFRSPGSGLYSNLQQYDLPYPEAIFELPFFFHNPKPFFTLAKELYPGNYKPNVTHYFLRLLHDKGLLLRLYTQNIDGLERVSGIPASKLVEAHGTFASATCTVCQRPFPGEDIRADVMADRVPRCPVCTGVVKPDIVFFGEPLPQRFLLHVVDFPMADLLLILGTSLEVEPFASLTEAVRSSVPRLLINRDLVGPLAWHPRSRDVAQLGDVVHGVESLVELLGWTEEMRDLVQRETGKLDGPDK

Compound	IC50 (Sirt3) [µM]	IC50 (Sirt5) [µM]	IC50 (Sirt7) [µM]	IC50 (Sirt6) [µM]	IC50 (Sirt2) [µM]	IC50 (Sirt1) [µM]	inhibition of Sirt1 (in words) (Sirt1)	effect on growth of MCF10a normal non-tumorigenic cells (MCF10a normal cell line)	inhibition of Sirt2 (in words) (Sirt2; summary of Table 1)	inhibition of anchorage-independent growth of MDA-MB-231 [1]
CC(=S)NCCCCC(NC(=O)OCc1ccccc1)C(=O)Nc1ccccc1 (stereo not shown) [TA]	> 205	> 205	> 205	> 205	105	30				
CCCC(=S)NCCCCC(NC(=O)OCc1ccccc1)C(=O)Nc1ccccc1 (stereo not shown) [TB]		> 205	> 205	> 205	3	2.4	efficiently inhibit			
CCCCCCC(=S)NCCCCC(NC(=O)OCc1ccccc1)C(=O)Nc1ccccc1 (stereo not shown) [TH]		> 205	> 205	> 205	0.12	0.31	efficiently inhibit	much less than that in the MCF7 cancer cell line; also recorded: can still grow	efficiently inhibit	
CCCCCCCCCCCCCC(=S)NCCCCC(NC(=O)OCc1ccccc1)C(=O)Nc1ccccc1 (stereo not shown) [TM]		> 205	> 205	> 205				much less than that in the MCF7 cancer cell line; also recorded: can still grow		can inhibit the anchorage-independent growth
